Results as given in US5158939A, “Method of stimulating the immune systems of animals and compositions useful therefor” (priority 1990, dated 1992).

Assays:
neutrophil = settings: literature; cited from earlier work
[1] = system: RAW 264.7 murine macrophage cells; test: Cachectin/TNF production by RAW 264.7 cells, immunoblot; type: cell-based; settings: other lipid A analogs and precursors
Method: For the […] to activate the RAW 264.7 murine macrophage cell line, we chose the toxic deep rough chemotype LPS (ReLPS) from Escherichia coli D31m4, which was recently purified and characterized^15. […] This is a clear example of a lipid A derivative showing strong antagonism against a toxic agonist in the induction of cachectin.
The immunoblot method was used to quantitate the cachectin/TNF production by RAW 264.7 murine macrophage cells. RAW 264.7 cells^4,16 were seeded in 24-well plates (Nunc) at a density of 3×10^5 cells/well in Dulbecco's modified Eagle's medium supplemented with 5 percent fetal calf serum. After 12 hours, cell monolayers were washed twice with 1 ml of serum-free medium and then left covered with […] of the same. An aqueous suspension of DPLA and/or ReLPS was then added to a final concentration indicated. Cells were incubated for 12 hours, after which the medium was removed for measurement of TNF by immunoblotting. One hundred μl of medium was mixed with 100 μl of SDS-containing sample buffer, heated to 100° C. for 5 minutes, and subjected to electrophoresis in a 10-15% polyacrylamide gradient gel. Proteins were then transferred to nitrocellulose electrophoretically, and TNF was visualized through the use of a rabbit anti-mouse TNF polyclonal serum^3,5 applied at a 1:100 dilution, followed by alkaline phosphatase-conjugated goat anti-rabbit IgG (Bio-Rad).
Bands were visualized using nitroblue tetrazolium. Approximately 0.1 ng of cachectin/TNF may be detected as a band. The antiserum also recognized the processing intermediates (prohormones) on Western blot.

[2] = large excess of lipid X; cited from earlier work
70Z/3 cells = settings: background; cited from earlier work

| Compound | inhibition of LPS-induced neutrophil priming (neutrophil) | induction of cachectin in RAW cells (immunoblot) [1] | blocking of toxic effects of lipid A [2] | activity in stimulating 70Z/3 cells (70Z/3 cells) |
| --- | --- | --- | --- | --- |
| CCCCCCCCCCC[C@@H](O)CC(=O)N[C@H]1[C@@H](OP(=O)(O)O)O[C@H](CO)[C@@H](O)[C@@H]1NC(=O)C[C@H](O)CCCCCCCCCCC [3-aza-lipid X] | inhibit the LPS-induced neutrophil priming |  |  |  |
| monophosphoryl lipid A [reference compound] |  | caused the induction of cachectin |  |  |
| CCCCCCCCCCC[C@@H](O)CC(=O)N[C@H]1[C@H](OC[C@H]2O[C@H](OP(=O)(O)O)[C@H](NC(=O)C[C@H](O)CCCCCCCCCCC)[C@@H](OC(=O)C[C@H](O)CCCCCCCCCCC)[C@@H]2O)O[C@H](CO)[C@@H](OP(=O)(O)O)[C@@H]1OC(=O)C[C@H](O)CCCCCCCCCCC [precursor IVA, reference compound] |  | caused the induction of cachectin |  |  |
| CCCCCCCCCCC[C@@H](O)CC(=O)N[C@H]1[C@@H](OP(=O)(O)O)O[C@H](CO)[C@@H](O)[C@@H]1OC(=O)C[C@H](O)CCCCCCCCCCC [lipid X] | inhibit the LPS-induced neutrophil priming | caused the induction of cachectin | partially blocking its toxic effects | some activity in stimulating 70Z/3 cells |
